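Values below derive from 48-hour exposures of cells grown in 96-well plates, with endpoints linearly interpolated between the two concentrations bracketing the appropriate inhibition level. Abbreviation: GI50, concentration required for 50% inhibition of growth. TGI marks complete inhibition of growth.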

Some test systems named below: A498 renal; CCRF-CEM leukemia; COLO 205 colon; EKVX NSCLC; HOP-92 NSCLC; HS 578T breast; IGROV1 ovarian; LOX IMVI melanoma; RPMI-8226 leukemia; U251 CNS.
Holding throughout (test): NCI-60 cell line screen, 48 h

For `CC(C)(C)NC(=O)[C@H]1C[C@H]2CCCC[C@H]2CN1C[C@@H](O)[C@H](Cc1ccccc1)NC(=O)[C@H](CC(N)=O)NC(=O)c1ccc2ccccc2n1`, the GI50 was 15.7 µM in the experiment on A498 renal; 9.31 µM with CCRF-CEM leukemia; 10.5 µM in the experiment on COLO 205 colon; 3.57 µM with EKVX NSCLC; 4.17 µM in the experiment on HOP-92 NSCLC; 16.4 µM in the experiment with HS 578T breast. For the same molecule, the GI50 with IGROV1 ovarian was 15.4 µM; with LOX IMVI melanoma it was 14.6 µM; in the experiment with RPMI-8226 leukemia it was 3.5 µM; in the experiment with U251 CNS it was 11.9 µM. For the same molecule, the TGI is 32.1 µM with A498 renal; 28 µM in the experiment on CCRF-CEM leukemia; 29.8 µM with COLO 205 colon; above 59.9 µM in the experiment with EKVX NSCLC; 20 µM in the experiment on HOP-92 NSCLC; 60.2 µM with HS 578T breast. In addition, the TGI in the experiment with IGROV1 ovarian was 38.8 µM; with LOX IMVI melanoma it was 32.1 µM; with RPMI-8226 leukemia it was 14.8 µM; with U251 CNS, 24.4 µM.

`C[C@]12CC[C@@H]3c4ccc(O)cc4C(O)C[C@H]3[C@@H]1CCC2=O` (stereo not given in full): the GI50 in the experiment on A498 renal was 76.2 µM; in the experiment with CCRF-CEM leukemia it was above 100 µM; with COLO 205 colon it was above 100 µM; in the experiment with EKVX NSCLC it was 48.8 µM; in the experiment with HOP-92 NSCLC it was 53.8 µM; in the experiment with HS 578T breast it was above 100 µM. Further, the GI50 in the experiment with IGROV1 ovarian is 58 µM; in the experiment with LOX IMVI melanoma, above 100 µM; in the experiment on RPMI-8226 leukemia it was 60.6 µM; in the experiment with U251 CNS it was above 100 µM. In addition, the TGI with A498 renal, in the experiment on CCRF-CEM leukemia, with COLO 205 colon, in the experiment on EKVX NSCLC, in the experiment with HOP-92 NSCLC and with HS 578T breast was above 100 µM throughout. In addition, the TGI in the experiment on IGROV1 ovarian, in the experiment on LOX IMVI melanoma, in the experiment with RPMI-8226 leukemia and in the experiment on U251 CNS was above 100 µM throughout.

`COc1cc(S(C)(=O)=O)ccc1Nc1nc2ccc(-c3ccc(NC(=O)[C@H](C)c4ccc(F)cc4)cc3)cn2n1`: the GI50 is above 100 µM in the experiment on A498 renal; 0.62 µM in the experiment with CCRF-CEM leukemia; 0.0838 µM in the experiment with COLO 205 colon; above 100 µM in the experiment on EKVX NSCLC; above 51.1 µM in the experiment on HOP-92 NSCLC; above 63.4 µM with HS 578T breast. The GI50 with IGROV1 ovarian is above 100 µM; with LOX IMVI melanoma, 10.6 µM; in the experiment on RPMI-8226 leukemia, 0.847 µM; with U251 CNS it was 35.9 µM. For the same molecule, the TGI in the experiment on A498 renal, in the experiment with CCRF-CEM leukemia, with COLO 205 colon, in the experiment on EKVX NSCLC, with HOP-92 NSCLC and with HS 578T breast was above 100 µM each time. Moreover, the TGI in the experiment with IGROV1 ovarian, in the experiment with LOX IMVI melanoma, with RPMI-8226 leukemia and with U251 CNS was above 100 µM in each case.

Regarding `Fc1cccc(Cl)c1/C=N\N=C1c2ccccc2-c2ccccc21`, the TGI in the experiment with A498 renal, with CCRF-CEM leukemia, in the experiment on COLO 205 colon, in the experiment on EKVX NSCLC, in the experiment on HOP-92 NSCLC and in the experiment on HS 578T breast was above 100 µM in each case. For the same molecule, the TGI with IGROV1 ovarian, with LOX IMVI melanoma, with RPMI-8226 leukemia and in the experiment on U251 CNS was above 100 µM in each case.

As for `CC1CCN(CC(=O)N2c3ccccc3Sc3cc4ccccc4cc32)CC1`, the TGI with A498 renal, in the experiment on CCRF-CEM leukemia, in the experiment with COLO 205 colon, with EKVX NSCLC, in the experiment with HOP-92 NSCLC and in the experiment on HS 578T breast was above 100 µM in each case. For the same molecule, the TGI in the experiment with IGROV1 ovarian, in the experiment on LOX IMVI melanoma, with RPMI-8226 leukemia and in the experiment on U251 CNS was above 100 µM in each case.

As to `CC(=O)Nc1ccc(S(=O)(=O)NNC(=O)c2cccnc2Nc2ccc(Cl)cc2)cc1`, the GI50 in the experiment on A498 renal is 18.4 µM; in the experiment on CCRF-CEM leukemia it was 21.3 µM; with COLO 205 colon, 10.3 µM; with EKVX NSCLC it was 48.9 µM; in the experiment on HOP-92 NSCLC it was above 100 µM; in the experiment on HS 578T breast it was 23.9 µM. Also, the GI50 in the experiment on IGROV1 ovarian is 27.3 µM; in the experiment with LOX IMVI melanoma, 24 µM; in the experiment on RPMI-8226 leukemia it was 28.6 µM; in the experiment with U251 CNS, 23.8 µM. Also, the TGI in the experiment on A498 renal was 76.1 µM; in the experiment with CCRF-CEM leukemia, above 100 µM; in the experiment with COLO 205 colon, 57 µM; with EKVX NSCLC, above 100 µM; in the experiment with HOP-92 NSCLC, above 100 µM; in the experiment on HS 578T breast it was above 100 µM. Also, the TGI in the experiment on IGROV1 ovarian, in the experiment on LOX IMVI melanoma, with RPMI-8226 leukemia and in the experiment with U251 CNS was above 100 µM in each case.

As for `O=C1CC(=O)OC(c2ccc([N+](=O)[O-])cc2)O1`, the GI50 was 2.76 µM with A498 renal; 2.45 µM with CCRF-CEM leukemia; 1.79 µM with COLO 205 colon; 3.56 µM in the experiment with EKVX NSCLC; 0.23 µM in the experiment with HOP-92 NSCLC; 2.7 µM in the experiment with HS 578T breast. For the same molecule, the GI50 was 3.1 µM with IGROV1 ovarian, 1.68 µM with LOX IMVI melanoma, 2.51 µM in the experiment on RPMI-8226 leukemia and 1.61 µM in the experiment on U251 CNS. In addition, the TGI worked out at 7.72 µM in the experiment on A498 renal; 8.79 µM in the experiment with CCRF-CEM leukemia; 3.41 µM in the experiment with COLO 205 colon; 18.3 µM with EKVX NSCLC; 3.71 µM in the experiment with HOP-92 NSCLC; 11.9 µM in the experiment with HS 578T breast. The TGI in the experiment with IGROV1 ovarian came out at 14.3 µM; with LOX IMVI melanoma it was 3.17 µM; in the experiment on RPMI-8226 leukemia, 7.33 µM; in the experiment with U251 CNS, 3.11 µM.

As for `O=C1c2ccccc2-n2c1nc1ccccc1c2=O`, the TGI is 59.8 µM in the experiment with A498 renal; above 100 µM with CCRF-CEM leukemia; 27.8 µM in the experiment with COLO 205 colon; 35.3 µM in the experiment on EKVX NSCLC; above 100 µM in the experiment with HOP-92 NSCLC; 45.2 µM with HS 578T breast. The TGI in the experiment on IGROV1 ovarian was above 92.1 µM; in the experiment on LOX IMVI melanoma, 25.1 µM; with RPMI-8226 leukemia, above 100 µM; in the experiment with U251 CNS, 37.5 µM.

The values are drawn from PubChem BioAssay (NCI).
